In patent US12005039B2, “Methods and compositions relating to lipokines for treating metabolic disorders” (Joslin Diabetes Center, Inc., priority 2018, dated 2024):

Tests used:
[1] = RER by CLAMS in exercise-trained iBAT- mice treated with 12,13-diHOME; type: in vivo; settings: iBAT- mice exercise trained 3 weeks, acutely treated with 12,13-diHOME
Experimental: For iBAT-mice, mice were anesthetized using isofluorane. iBAT was surgically removed and the artery immediately cauterized. Sham mice underwent the same surgical procedure, but iBAT was not removed.
(§1) For measurements of respiratory exchange ratio (RER) and energy expenditure, mice were placed in metabolic chambers and injected intravenously with 1 μg/kg body weight 12,13-diHOME in 0.1% BSA PBS or vehicle and then monitored in the Comprehensive Laboratory Animals Monitoring System (CLAMS) at room temperature (22° C.) for 4 h.
Therefore, an analysis of sham and iBAT-mice was performed to determine whether increased 12,13-diHOME with training regulated fat utilization in vivo. Sham and iBAT-mice were sedentary or exercise trained for 3 weeks and subsequently, the RER was measured in metabolic cages. […] In contrast, there was no effect of exercise training on RER in the iBAT-mice.

isolated mouse soleus = assay: 3H-2-deoxyglucose uptake in isolated soleus muscle; settings: 300 ng/mL, 1 hour, vs vehicle
Experimental: (§2) For experiments measuring in vivo bioluminescent fatty acid uptake in skeletal muscle, ACTA1cre^+/− mice (Stock no. 006139) were bred with Rosa(stop)Luc^+/+ (Stock no. 005125) (Jackson Laboratory). Experiments measuring skeletal muscle glucose uptake in isolated skeletal muscle glucose uptake were performed in 6 week old, female, CD-1 IGS mice (Charles River Laboratories).
(§3) Isolated skeletal muscle glucose uptake was measured as previously described (Hayashi et al., 1998). Briefly, EDL or soleus muscles were dissected from 6 wk old female CD-1 mice, mounted, and incubated in Krebs-Ringer bicarbonate buffer (KRB) pH 7.4 containing 2 mM pyruvate for 60 min. Both EDL and soleus were incubated with vehicle or 300 ng/mL of 12,13-diHOME. Following treatment, glucose transport activity was measured for an additional 10 min.
(§4) Glucose is an important fuel source utilized during exercise. Accordingly, assays were performed to determine whether 12,13-diHOME increased glucose uptake in skeletal muscle. […] To confirm these findings, isolated mouse soleus and extensor digitorum longus (EDL) skeletal muscles were incubated with either vehicle or 12,13-diHOME for 1 hour.

C2C12 cells = assay: Oxygen consumption rate (Seahorse XF24) in C2C12 cells; type: cell-based; settings: 1.5 μM, 15 min, 200 μM palmitate, vs vehicle
Experimental: (§5) mRNA levels of were measured by quantitative RT-PCR using primers (Table 4). Fatty acid uptake and oxidation into differentiated C2C12 muscle cells and 3T3L1 adipocytes measured using ^14C-labeled palmitic acid uptake and conversion of ^14C-labeled palmitic acid into CO2 as previously described (Townsend et al., 2013). Cells were treated with 1.5 μM 12,13-diHOME or methyl acetate vehicle for 15 min, similar to previous studies (Lynes et al., 2017). Oxygen consumption rates (OCR) were measured in starved (1 hour) C2C12 skeletal muscle cells treated with 1.5 μM 12,13-diHOME or methyl acetate vehicle for 15 min and OCR measured in 200 μM palmitate (Seahorse XF24) (Vernochet et al., 2012).
To determine if 12,13-diHOME regulated mitochondrial function in muscle, differentiated C2C12 myotubes were incubated with 12,13-diHOME and then analyzed for mitochondrial respiration. 12,13-diHOME incubation increased basal oxygen consumption rate (OCR) and respiratory capacity in C2C12 cells (FIGS. 4A and 4B).

[2] = Sisemore et al., 2001; cited from earlier work
skeletal muscle = assay: In vivo bioluminescent fatty acid uptake in skeletal muscle (FFA-SS-Luc); settings: ACTA1Cre+/- Rosa(stop)Luc+/- mice
Experimental: as §2
For experiments measuring in vivo bioluminescent fatty acid uptake in skeletal muscle, ACTA1cre^+/− mice (Stock no. 006139) were bred with Rosa(stop)Luc^+/+ (Stock no. 005125)(Jackson Laboratory). Male offspring carrying the cre allele were injected retro-orbitally with 1 μg/kg body weight 12,13-diHOME in 0.1% BSA PBS or methyl acetate as a vehicle and all mice were co-injected with 2 μm FFA-SS-Luc (Intrace Medical). This dose is based on the circulating concentration of 12,13-diHOME in mice that are housed at room temperature, 3 ng/mL (10 nM). After an acute bout of exercise, 12,13-diHOME increased to 10-30 ng/mL (30-100 nM). This is considerably below the reported cytotoxic dose of 100 mg/kg body weight (Sisemore et al., 2001). Mice were anesthetized and imaged (IVIS Spectrum CT) using sequential 30 second exposures for 12 min.
A major source of energy for the working skeletal muscles during exercise comes from the uptake and oxidation of fatty acids. […]

3T3-L1 cells [3] = assay: Oxygen consumption rate in 3T3-L1 cells; type: cell-based; settings: any condition (data not shown)
3T3-L1 cells [4] = assay: 14C-palmitic acid uptake and oxidation in 3T3-L1 cells; type: cell-based; settings: 1.5 μM, 15 min, vs vehicle
Experimental: (§6) Cells were housed at 37° C., 95% humidity and 5% CO2. C2C12 myoblasts (ATCC; passages 4-7) were maintained in DMEM containing 10% FBS and 1% penicillin/streptomycin. Differentiation was induced by incubating the cells in DMEM containing 2% horse serum and 1% penicillin/streptomycin for 4 days. 3T3-LI adipocytes (ATCC; passages 4-7) were maintained in DMEM containing 10% FBS and 1% penicillin/streptomycin. Differentiation was induced by incubating the cells in DMEM containing […] and 1% penicillin/streptomycin with 400 ng/mL dexamethasone, 1 μg/mL insulin, and 115 μg/mL IBMX for days 0-2, 1 μg/mL insulin for days 2-4, and DMEM with 10% FBS and 1% penicillin/streptomycin only days 4-8.
as §5, with “2012). […]” for “2012).”

[5] = tested on: differentiated C2C12 myotubes; assay: 3H-2-deoxyglucose uptake in C2C12 cells; type: cell-based; settings: 1.5 mM, 15 min, vs vehicle
Experimental: 2-deoxyglucose uptake in C2C12 cells was measured as previously described (Nedachi and Kanzaki, 2006). Briefly, differentiated C2C12 myotubes were serum starved for 3 h in DMEM before any treatment. Cells were incubated with 12,13-diHOME ([…]; 15 min) or insulin (100 nM; 15 min). After stimulation, cells were washed with buffer containing 140 mM NaCl, 20 mM Hepes-Na (pH 7.4), 5 mM KCl, 2.5 mM MgSO4, and 1.0 mM CaCl2. Glucose transport was determined by the addition of ^3H-2-deoxyglucose for glucose for 10 min on ice. Cells were washed with ice-cold saline solution and harvested in 0.05 N NaOH to determine net accumulation of [^3H]-2-deoxyglucose (Nedachi and Kanzaki, 2006).
as §4

[6] = Respiratory exchange ratio and energy expenditure by CLAMS in acutely treated mice; type: in vivo; settings: wild-type mice, acute injection 1 μg/kg body weight i.v., CLAMS 4 h at room temperature, vs vehicle
Experimental: as §1
A major source of energy for the working skeletal muscles during exercise comes from the uptake and oxidation of fatty acids. To determine whether 12,13-diHOME increases fatty acid uptake and oxidation in skeletal muscle in vivo, a mouse model. ACTA1Cre+/−Rosa(stop)Luc+/−mice, was generated that constitutively expressed a bioluminescent reporter in skeletal muscle. Mice were injected intravenously with FFA-SS-Luc, which is a fatty acid conjugated to luciferin (Henkin et al., 2012; Liao et al., 2005), in the presence of 12,13-diHOME or a vehicle control. […] These surprising in vivo data provided a potential physiological function for the exercise-induced increases in 12,13-diHOME.

[7] = tested on: differentiated C2C12 cells; assay: 14C-palmitic acid uptake and oxidation in C2C12 cells; type: cell-based; settings: 1.5 μM, 15 min, vs vehicle
Experimental: as §6
as §5, with “2012). […]” for “2012).”

[8] = tested on: isolated mouse extensor digitorum longus (EDL); assay: 3H-2-deoxyglucose uptake in isolated EDL muscle; settings: 300 ng/mL, 1 hour, vs vehicle
Experimental: as §2, §3, §4

[9] = tested on: mitochondrial and fatty acid oxidation genes; assay: Expression of mitochondrial and fatty acid genes in tissues after acute injection (qRT-PCR); settings: mice injected in vivo
Experimental: as §5
To identify a mechanism for increased fat utilization with 12,13-diHOME in skeletal muscle, assays were performed to determine the effects of injecting mice with 12,13-diHOME in vivo on the expression of mitochondrial and fatty acid oxidation genes in tibialis anterior muscle. […] However, there was no effect of 12,13-diHOME on mitochondrial or fatty acid oxidation genes in scWAT, pgWAT, liver, or BAT (FIGS. 6D-6G). These findings were consistent with the data showing that 12,13-diHOME regulates fatty acid metabolism in skeletal muscle.

CCCCCC(O)C(O)C/C=C\CCCCCCCC(=O)O (stereo not drawn) [12,13-diHOME, 12,13-dihydroxy-9Z-octadecenoic acid]
RER [1]: significantly decreased
rate of glucose uptake (3H-2DG) (isolated mouse soleus): no effect
ATP turnover (C2C12 cells): did not affect
basal oxygen consumption rate (OCR) (C2C12 cells): increased
maximal uncoupled respiration (C2C12 cells): did increase
respiratory capacity (C2C12 cells): increased
reported cytotoxic dose [2]: 100 mg/kg body weight
fatty acid uptake in skeletal muscle (luciferase activity) (skeletal muscle; 1 μg/kg body weight injected with FFA-SS-Luc, vs vehicle): increased fatty acid uptake in skeletal muscle
time fatty acid uptake remained significantly elevated above vehicle (skeletal muscle; 1 μg/kg body weight, after injection): 10 min
OCR (3T3-L1 cells [3]): did not increase OCR under any condition
fatty acid oxidation (14C palmitic acid to CO2) (3T3-L1 cells [4]): did not increase
fatty acid uptake (14C palmitic acid) (3T3-L1 cells [4]): did not increase
glucose uptake (3H-2DG) [5]: did not affect glucose uptake
energy expenditure [6]: independent of any change in energy expenditure
respiratory exchange ratio (RER) [6]: decreased
fatty acid oxidation (14C palmitic acid to CO2) [7]: significant increase
fatty acid uptake (14C palmitic acid) [7]: significant increase
rate of glucose uptake (3H-2DG) [8]: no effect
expression of mitochondrial or fatty acid oxidation genes ([9]; BAT): no effect
expression of mitochondrial and fatty acid genes ([9]; heart): increased expression of Nrf1 and Nrf2
expression of mitochondrial or fatty acid oxidation genes ([9]; liver): no effect
expression of mitochondrial or fatty acid oxidation genes ([9]; pgWAT): no effect
expression of mitochondrial or fatty acid oxidation genes ([9]; scWAT): no effect
expression of mitochondrial and fatty acid genes ([9]; tibialis anterior muscle): increased expression of several genes involved in mitochondrial activity and biogenesis (citrate synthase, Nrf1, Nrf2), and fatty acid uptake (Cd36, Fatp4)
